Laboratory results from patent US20060004102A1, “Polymorphic forms of nateglinide” (priority 2004, published 2006).
Structures can show the parent of a compound that is named as a salt. Where two headings read alike, the source gives them in different places.

How the values were obtained:
[1] = DSC, according to U.S. Pat. No. 5,463,116; cited from earlier work
[2] = Solubility of nateglinide in solvents; format: physicochemical; conditions: mixture of methanol, water and a base (source of ammonium ions)
[3] = cited from earlier work

CC(C)[C@H]1CC[C@H](C(=O)N[C@H](Cc2ccccc2)C(=O)O)CC1 [B-type, nateglinide]
stability of crystal form during grinding [1]: unstable and susceptible to change during grinding

CC(C)[C@H]1CC[C@H](C(=O)N[C@H](Cc2ccccc2)C(=O)O)CC1 [Form Phi, nateglinide ammonium salt]
solubility [2]: relatively insoluble

CC(C)[C@H]1CC[C@H](C(=O)N[C@H](Cc2ccccc2)C(=O)O)CC1 [nateglinide, (−)-N-(trans-4-isoporpylcyclohexanecarbonyl)-D-Phenylalanine]
solubility ([3]; in acetonitrile): sparingly soluble
solubility ([3]; in chloroform): freely soluble
solubility ([3]; in ethanol): freely soluble
solubility ([3]; in ether): soluble
solubility ([3]; in methanol): freely soluble
solubility ([3]; in octanol): sparingly soluble
solubility ([3]; in water): practically insoluble
solubility ([3]; in water, listed as Nateglinide): insoluble
